1 molecule from patent publication US20230049145A1, “GLYCOSYLATED POLYPEPTIDES” (FRESENIUS KABI DEUTSCHLAND GMBH, priority 2019, published 2023) can be followed below.

Data set [1] deals with CHO cells. The experiment in a line: Cell viability of CHO fed-batch cultures supplemented with kifunensine. The conditions noted are these: CHO fed-batch cultures, 30, 40, 50 or 60 nM kifunensine added on day 3. It is filed as cell-based, Chinese hamster. How it is done: (§1) CHO cells transfected with expression vectors encoding SEQ ID NOs: 3 and 4 (which correspond to the heavy and lights chains respectively of the human anti-RANKL IgG2 monoclonal antibody, denosumab) were cultured in bioreactors using standard fed-batch methods. To examine the effects of kifunensine on the Fc-glycan sialylation levels of the resulting IgG2, the cultures were supplemented with either 30, 40, 50 or 60 nM kifunensine on day 3 of the culture. A control culture was also maintained under the same conditions albeit in the absence of kifunensine.

In data set [2] the test system is Sp2/0 cells. Nature of the data set: Cell viability of Sp2/0 perfusion cultures supplemented with kifunensine. Particulars: Sp2/0 perfusion cultures, 3, 6, 9 or 12 μg/L kifunensine (13, 26, 39 or 52 nM), 30 days. The class given is cell-based, Murine. As for the experimental part: (§2) Murine Sp2/0 cells transfected with expression vectors encoding SEQ ID NOs: 1 and 2 (which correspond to the heavy and light chains respectively of the human anti-TNFα IgG1 monoclonal antibody, golimumab) were cultured in perfusion bioreactors for 30 days under standard operating parameters. To examine the effect of kifunensine on the sialylation levels of the resulting IgG1, the perfusion cultures were supplemented with either 3, 6, 9, or 12 μg/L kifunensine (corresponding to 13 nM, 26 nM, 39 nM or 52 nM). A control culture was also maintained under the same conditions albeit in the absence of kifunensine.

For data set [3], the system named is Sp2/0 cells. Nature of the data set: Sialylation of human IgG1 antibody (golimumab) produced in Sp2/0 cells in perfusion culture supplemented with kifunensine; glycan analysis by HILIC. It is filed as cell-based, Murine. Particulars: IgG1 (golimumab) from Sp2/0 cells. How it is done:
as §2
(§3) On culture day 18, samples were taken from the perfusion bioreactors and the percentage sialylation of the IgG1 antibodies was determined by glycan analysis. Briefly, antibodies were first purified using protein A chromatography, glycans were then enzymatically released from the antibody, fluorescently labelled with 2-aminobenzamide and analysed using hydrophilic interaction chromatography (HILIC) based methods.

Data set [4] deals with CHO cells. Nature of the data set: Fc-glycan sialylation of human IgG2 antibody (denosumab) produced in CHO cells in fed-batch culture supplemented with kifunensine. Particulars: IgG2 (denosumab) from CHO cells, day 20, FIG. 2. It is filed as cell-based, Chinese hamster. As for the experimental part:
as §3, §1
On day 20, samples were taken from bioreactors and the percentage Fc-glycan sialylation of the IgG2 antibodies was determined as described in Example 1.

Data set [5] concerns CHO cells. Nature of the data set: Glycosylation profile of recombinant human EPO produced in CHO cells in perfusion culture supplemented with kifunensine. The class given is cell-based, Chinese hamster. Particulars: CHO perfusion culture 18 days, 12 μg/L kifunensine from day 0. How it is done: CHO cells transfected with expression vectors encoding recombinant human EPO (UniProt Accession No. P01588, Sequence Version 1, Entry Version 195) are cultured in perfusion bioreactors for 18 days under standard operating parameters. The culture medium is supplemented with 12 μg/L kifunensine from day 0.
Recombinant human EPO produced during the culture period is harvested throughout the production phase and at the end of the culture period, a sample is obtained to determine the glycosylation profile. The resultant recombinant human EPO has increased mannosylation and sialylation compared to that produced in cultures without kifunensine.

With `O=C1N[C@@H]2[C@@H](O)[C@@H](O)[C@H](O)[C@@H](CO)N2C1=O` [kifunensine, (5R,6R,7S,8R,8aS)-6,7,8-trihydroxy-5-(hydroxymethyl)-1,5,6,7,8,8a-hexahydroimidazo[1,2-a]pyridine-2,3-dione], the “impact on cell viability” value in the data set with CHO cells [1] is given as “No significant impact on cell viability”. Also, in the data set on Sp2/0 cells [2], the “impact on cell viability” value is on record as “No significant impact on cell viability”. In addition, the “kifunensine concentration giving peak sialylation levels” value in the data set with Sp2/0 cells [3] (culture day 18, FIG. 1) stood at 12 µg/L. Further, in the data set on Sp2/0 cells [3] (culture day 18, FIG. 1, particularly 9 and 12 μg/L), the “kifunensine concentration at which an increase in sialylation compared to control was evident” value was no less than 6 µg/L. Also, the “kifunensine concentration giving peak sialylation levels (molar)” value in the data set on Sp2/0 cells [3] (culture day 18, conversion of 12 μg/L) is roughly 52 nM. For the same molecule, in the data set on CHO cells [4], the “kifunensine concentration at which an increase in Fc-glycan sialylation compared to control was evident” value is greater than 40 nM and the “kifunensine concentration giving peak Fc-glycan sialylation” value was 60 nM. For the same molecule, in the data set with CHO cells [5], the “mannosylation of recombinant human EPO compared to cultures without kifunensine” value was “increased” and the “sialylation of recombinant human EPO compared to cultures without kifunensine” value is reported as “increased”.
